# What was measured:
# EP300 = EP300 (Homo sapiens, UniProt Q09472); assay: Histone acetyltransferase inhibitory activity against EP300 (Test Example 1); assay type: biochemical; conditions: 50 ng/mL EP300, 2 μM Acetyl-CoA, 100 nM Histone H4(1-25)-GSGSK (Biotin), 28° C. for 1 hour
# Method: (§1) [Test Example 1] Evaluation of Histone
# (§2) Acetyltransferase Inhibitory Activity against EP300 and CREBBP
# (§3) 10 μL each of reaction solutions each containing a different concentration of the compound of each of Examples 1 to 108b (50 mM Tris-HCl (pH8.0), 0.1 mM EDTA, 1 mM dithiothreitol, 0.01% Tween-20, 0.01% Bovine serum albumin, 330 nM trichostatin A, 2 μM Acetyl-CoA (Sigma-Aldrich, #A2056), 100 nM Histone H4(1-25)-GSGSK (Biotin) (Anaspec, #65242-1), 1% dimethyl sulfoxide, 10 to 0.0006 μM of each compound, 50 ng/mL EP300 or 125 ng/mL CREBBP) was added to respective wells of a 384-well plate, and cultured at 28° C. for 1 hour. Thereafter, 5 μL of 30 μM Lys-CoA (Daiichi Sankyo Co., Ltd.) dissolved in LANCE detection buffer (Perkin Elmer Co., Ltd., #CR97-100) was added to each well. Furthermore, 5 μL of LANCE detection buffer containing 2 nM Eu-anti pan-Ac (Perkin Elmer Co., Ltd., #TRF0412) and 50 nM Sta-Ulight (Perkin Elmer Co., Ltd., #TRF0102) was added to each well, and the resultant was cultured at room temperature overnight. EnVision (Perkin Elmer Co., Ltd., Model 2104-0020) was used to measure ULight signals. […] EP300 and CREBBP were produced and purified by Daiichi Sankyo RD Novare Co., Ltd.
# H3K27Ac = assay: Intracellular H3K27Ac inhibitory activity in LK2 cells (Test Example 2); assay type: cell-based; conditions: Homo sapiens, LK-2, cultured with compound for 3 hours, read-out: Test Example 2 H3K27Ac Inhibition (LK2) IC50
# Outline: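 Human squamous lung cancer LK2 cells (40000/well) cultured overnight at 37 °C, 5% CO2 before treatment. After paraformaldehyde fixation, peroxide quench and blocking, H3K27 acetylation detected with anti-acetyl-H3K27 rabbit mAb (4 °C overnight) and HRP secondary; chemiluminescent read-out.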
# TE-8 cells = assay: Cell growth inhibitory activity, TE-8 cells (Test Example 3); assay type: cell-based; conditions: Homo sapiens, 72 h, cultured for 3 days, CellTiter-Glo
# Method: (§4) [Test Example 3] Evaluation of Cell Growth Inhibitory Activity
# (§5) As a culture medium for each cell, a 10% FBS supplemented RPMI 1640 medium (for LK2 cells and TE-8 cells derived from human esophageal cancer) was used. LK2 cells were purchased from Human Science Research Resources Bank, and TE-8 cells were purchased from Riken Cell Bank. The compound of each of Examples 1 to 108b was prepared by dilution with Freedom EVO 150 (Tecan Trading AG) (4-fold diluted, 10 stages, 10 mM to 38 nM). The resultant was added to respective wells of a 384-well plate in an amount of 40 nL/well using Echo 555 (Labcyte Inc.). The LK2 or TE-8 cells were seeded in the plate at 400 cells/40 μL/well (day 0), and were cultured for 3 days. On the day of addition of the compound (day 0) and 3 days after the addition of the compound (day 3), an ATP measurement reagent of CellTiter-Glo (registered trademark) 2.0 Assay (Promega Corporation, #G9242) was added to each well in an amount of 10 μL/well, and the amount of luminescence of each well was measured using EnVision. Based on the amount of luminescence (C0) on the day of the addition of the compound, and the amounts of luminescence of a compound non-addition group (C3) and a compound addition group (T3) obtained after the 3-day culture of the compound, a cell survival rate was calculated in accordance with the following expression: Cell survival rate (%)=(T3−C0)/(C3−C0)×100
# (§6) A concentration (GI50 value) of each compound at which the growth of the TE-8 or LK-2 cells was inhibited by 50% was calculated by semilogarithmically plotting the cell survival rate at each concentration and the compound concentration.
# CREBBP = CREBBP (Homo sapiens, UniProt Q92793); assay: Histone acetyltransferase inhibitory activity against CREBBP (Test Example 1); assay type: biochemical; conditions: 125 ng/mL CREBBP, 2 μM Acetyl-CoA, 100 nM Histone H4(1-25)-GSGSK (Biotin), 28° C. for 1 hour
# Sequence of CREBBP (Q92793 whole entry): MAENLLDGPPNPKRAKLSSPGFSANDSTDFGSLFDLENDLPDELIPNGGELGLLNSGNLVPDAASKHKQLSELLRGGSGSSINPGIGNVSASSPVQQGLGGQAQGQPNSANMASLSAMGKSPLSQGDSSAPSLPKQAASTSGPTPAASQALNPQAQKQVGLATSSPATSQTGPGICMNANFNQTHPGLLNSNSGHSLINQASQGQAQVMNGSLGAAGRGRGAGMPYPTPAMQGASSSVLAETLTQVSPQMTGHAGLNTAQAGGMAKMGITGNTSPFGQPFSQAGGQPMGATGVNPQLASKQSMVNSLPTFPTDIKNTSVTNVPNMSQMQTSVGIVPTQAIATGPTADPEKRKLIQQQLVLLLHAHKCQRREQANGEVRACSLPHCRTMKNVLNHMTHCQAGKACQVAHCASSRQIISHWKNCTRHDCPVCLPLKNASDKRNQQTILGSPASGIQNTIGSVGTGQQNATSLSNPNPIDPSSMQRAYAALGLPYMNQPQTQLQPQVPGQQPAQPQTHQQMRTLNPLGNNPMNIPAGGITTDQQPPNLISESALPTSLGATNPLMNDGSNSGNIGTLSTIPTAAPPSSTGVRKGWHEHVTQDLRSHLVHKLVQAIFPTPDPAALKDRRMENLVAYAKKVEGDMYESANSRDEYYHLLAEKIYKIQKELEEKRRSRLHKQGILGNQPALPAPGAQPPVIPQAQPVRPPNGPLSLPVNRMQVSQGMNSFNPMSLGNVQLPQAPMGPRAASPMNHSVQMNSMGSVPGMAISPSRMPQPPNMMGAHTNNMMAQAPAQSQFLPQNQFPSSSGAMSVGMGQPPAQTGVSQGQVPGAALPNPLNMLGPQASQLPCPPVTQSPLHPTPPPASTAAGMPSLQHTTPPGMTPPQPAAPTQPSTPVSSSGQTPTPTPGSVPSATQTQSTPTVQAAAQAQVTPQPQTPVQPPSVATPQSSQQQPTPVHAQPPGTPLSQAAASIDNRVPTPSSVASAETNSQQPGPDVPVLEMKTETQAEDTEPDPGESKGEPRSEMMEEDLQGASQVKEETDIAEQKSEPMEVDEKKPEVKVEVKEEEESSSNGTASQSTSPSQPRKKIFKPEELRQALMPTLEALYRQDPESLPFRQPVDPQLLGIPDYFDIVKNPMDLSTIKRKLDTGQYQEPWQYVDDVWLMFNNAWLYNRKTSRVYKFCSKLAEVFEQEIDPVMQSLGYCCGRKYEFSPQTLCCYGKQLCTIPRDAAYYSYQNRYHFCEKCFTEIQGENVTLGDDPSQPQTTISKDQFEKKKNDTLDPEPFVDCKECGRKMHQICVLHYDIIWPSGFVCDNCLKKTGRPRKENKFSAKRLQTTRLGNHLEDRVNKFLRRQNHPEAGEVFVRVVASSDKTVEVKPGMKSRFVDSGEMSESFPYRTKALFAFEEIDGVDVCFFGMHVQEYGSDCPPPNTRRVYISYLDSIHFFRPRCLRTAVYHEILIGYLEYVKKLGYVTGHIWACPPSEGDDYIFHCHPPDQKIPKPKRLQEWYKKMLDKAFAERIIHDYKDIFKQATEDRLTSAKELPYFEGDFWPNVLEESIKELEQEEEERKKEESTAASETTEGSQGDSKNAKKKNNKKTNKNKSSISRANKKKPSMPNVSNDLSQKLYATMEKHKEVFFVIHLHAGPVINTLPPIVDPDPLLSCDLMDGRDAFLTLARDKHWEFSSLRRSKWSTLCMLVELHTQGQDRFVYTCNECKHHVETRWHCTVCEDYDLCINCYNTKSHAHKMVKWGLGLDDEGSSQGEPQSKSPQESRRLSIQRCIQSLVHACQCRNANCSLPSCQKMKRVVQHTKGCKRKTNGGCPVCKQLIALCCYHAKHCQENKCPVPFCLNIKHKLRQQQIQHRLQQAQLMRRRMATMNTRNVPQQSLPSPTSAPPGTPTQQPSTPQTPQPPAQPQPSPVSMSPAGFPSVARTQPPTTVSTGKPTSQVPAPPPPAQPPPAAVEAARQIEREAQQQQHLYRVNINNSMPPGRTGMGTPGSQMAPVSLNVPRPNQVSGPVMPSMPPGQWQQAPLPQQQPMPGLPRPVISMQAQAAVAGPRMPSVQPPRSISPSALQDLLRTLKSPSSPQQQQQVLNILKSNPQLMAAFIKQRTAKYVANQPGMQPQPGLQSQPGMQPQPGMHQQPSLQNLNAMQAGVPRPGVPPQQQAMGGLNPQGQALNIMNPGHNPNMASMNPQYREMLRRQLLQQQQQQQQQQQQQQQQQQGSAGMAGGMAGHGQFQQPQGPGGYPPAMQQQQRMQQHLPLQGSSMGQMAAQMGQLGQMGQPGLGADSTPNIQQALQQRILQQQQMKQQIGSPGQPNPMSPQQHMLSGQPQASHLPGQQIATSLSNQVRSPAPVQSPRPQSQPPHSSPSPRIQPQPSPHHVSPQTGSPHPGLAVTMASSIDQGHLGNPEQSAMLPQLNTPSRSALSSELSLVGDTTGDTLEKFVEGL
# Method: as §1, §2, §3
# LK2 cells = assay: Cell growth inhibitory activity, LK2 cells (Test Example 3); assay type: cell-based; conditions: Homo sapiens, LK-2, 72 h, cultured for 3 days, CellTiter-Glo
# Method: as §4, §5, §6
# Sequence of EP300 (Q09472 whole entry): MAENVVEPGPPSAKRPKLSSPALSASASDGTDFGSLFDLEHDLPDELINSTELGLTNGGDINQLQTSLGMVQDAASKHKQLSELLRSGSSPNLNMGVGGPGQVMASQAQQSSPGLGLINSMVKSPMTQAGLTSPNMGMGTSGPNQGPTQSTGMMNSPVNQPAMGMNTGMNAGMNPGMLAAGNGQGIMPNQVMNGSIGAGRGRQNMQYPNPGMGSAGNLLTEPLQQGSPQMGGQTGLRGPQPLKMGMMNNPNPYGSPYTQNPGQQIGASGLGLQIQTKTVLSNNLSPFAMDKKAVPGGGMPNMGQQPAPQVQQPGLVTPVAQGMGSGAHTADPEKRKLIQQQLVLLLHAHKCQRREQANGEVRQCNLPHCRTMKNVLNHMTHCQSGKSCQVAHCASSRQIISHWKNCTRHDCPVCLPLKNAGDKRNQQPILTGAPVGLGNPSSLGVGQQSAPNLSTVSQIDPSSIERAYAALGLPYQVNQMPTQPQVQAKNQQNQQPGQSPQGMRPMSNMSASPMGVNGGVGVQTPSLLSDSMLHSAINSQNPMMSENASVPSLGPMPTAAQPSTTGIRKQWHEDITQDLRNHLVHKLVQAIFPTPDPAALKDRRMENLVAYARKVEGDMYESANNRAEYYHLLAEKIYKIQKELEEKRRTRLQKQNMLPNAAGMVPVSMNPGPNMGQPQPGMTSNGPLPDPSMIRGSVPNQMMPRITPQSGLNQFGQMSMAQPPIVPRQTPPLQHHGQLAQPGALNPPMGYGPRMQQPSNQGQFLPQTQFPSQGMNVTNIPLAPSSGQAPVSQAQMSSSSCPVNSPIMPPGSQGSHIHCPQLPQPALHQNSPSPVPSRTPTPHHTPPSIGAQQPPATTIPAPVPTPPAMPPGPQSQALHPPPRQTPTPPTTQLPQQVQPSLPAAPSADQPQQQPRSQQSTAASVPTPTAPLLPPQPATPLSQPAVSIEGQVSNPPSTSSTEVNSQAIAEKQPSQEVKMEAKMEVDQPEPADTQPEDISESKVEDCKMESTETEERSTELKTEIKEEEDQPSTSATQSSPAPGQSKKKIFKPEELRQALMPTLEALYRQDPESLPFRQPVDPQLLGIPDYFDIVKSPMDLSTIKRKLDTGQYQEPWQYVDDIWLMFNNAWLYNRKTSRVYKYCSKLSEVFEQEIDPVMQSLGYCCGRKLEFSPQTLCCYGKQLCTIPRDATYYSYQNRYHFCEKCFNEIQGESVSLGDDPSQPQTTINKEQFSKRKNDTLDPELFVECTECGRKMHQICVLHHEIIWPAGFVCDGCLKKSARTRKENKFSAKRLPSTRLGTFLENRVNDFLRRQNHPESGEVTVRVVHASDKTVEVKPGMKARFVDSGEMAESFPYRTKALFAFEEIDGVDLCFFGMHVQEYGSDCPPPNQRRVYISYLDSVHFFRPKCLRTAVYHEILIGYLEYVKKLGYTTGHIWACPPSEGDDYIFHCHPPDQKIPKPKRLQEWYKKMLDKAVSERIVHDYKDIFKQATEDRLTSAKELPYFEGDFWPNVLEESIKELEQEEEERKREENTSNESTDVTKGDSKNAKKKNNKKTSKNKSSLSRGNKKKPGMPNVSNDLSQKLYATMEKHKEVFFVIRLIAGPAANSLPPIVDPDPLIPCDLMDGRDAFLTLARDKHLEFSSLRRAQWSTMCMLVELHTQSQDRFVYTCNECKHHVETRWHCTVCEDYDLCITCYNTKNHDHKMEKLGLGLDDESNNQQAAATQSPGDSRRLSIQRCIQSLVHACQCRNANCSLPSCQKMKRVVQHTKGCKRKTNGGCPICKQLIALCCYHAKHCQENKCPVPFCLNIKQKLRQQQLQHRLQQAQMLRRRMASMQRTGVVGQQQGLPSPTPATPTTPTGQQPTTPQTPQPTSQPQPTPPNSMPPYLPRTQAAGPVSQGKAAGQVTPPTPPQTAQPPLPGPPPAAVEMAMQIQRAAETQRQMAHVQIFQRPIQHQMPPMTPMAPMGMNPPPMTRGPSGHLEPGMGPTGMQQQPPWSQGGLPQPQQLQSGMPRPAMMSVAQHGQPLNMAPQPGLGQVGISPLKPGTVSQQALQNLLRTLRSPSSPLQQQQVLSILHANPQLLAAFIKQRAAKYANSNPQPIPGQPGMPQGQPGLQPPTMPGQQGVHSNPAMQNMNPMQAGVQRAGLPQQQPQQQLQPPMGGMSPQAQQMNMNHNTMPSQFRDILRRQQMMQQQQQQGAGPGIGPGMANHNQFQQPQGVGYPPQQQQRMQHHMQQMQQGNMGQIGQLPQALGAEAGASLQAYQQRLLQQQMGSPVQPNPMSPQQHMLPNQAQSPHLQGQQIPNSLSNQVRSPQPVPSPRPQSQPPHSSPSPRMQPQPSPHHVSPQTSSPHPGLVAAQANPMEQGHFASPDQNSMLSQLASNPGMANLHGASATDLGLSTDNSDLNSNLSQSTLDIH
Compound,IC50 (EP300) [nM],IC50 (H3K27Ac) [nM],IC50 (CREBBP) [nM],GI50 (TE-8 cells) [nM],GI50 (LK2 cells) [nM]
"COc1ccc(C2(C(=O)N3CC[C@@H](O)[C@@H]3C(=O)Nc3ccc4[nH]ccc4n3)CCC(F)(F)CC2)cc1 [Example 74, (3R)-1-{[4,4-Difluoro-1-(4-methoxyphenyl)cyclohexyl]carbonyl}-3-hydroxy-N-1H-pyrrolo[3,2-b]pyridin-5-yl-D-prolinamide]",58,86,86,599,271
O=C(Nc1ccc2[nH]ncc2n1)[C@H]1C[C@@H](F)CN1C(=O)C1(c2ccc(OCC(F)(F)F)c(F)c2)CC(F)(F)C1 [Example 87],38,73,82,300,237
"COc1ccc(C2(C(=O)N3CS(=O)(=O)C[C@@H]3C(=O)Nc3ccc4[nH]c(C)cc4n3)CCC(F)(F)CC2)cc1 [Example 79, (4S)-3-{[4,4-Difluoro-1-(4-methoxyphenyl)cyclohexyl]carbonyl}-N-(2-methyl-1H-pyrrolo[3,2-b]pyridin-5-yl)-1,3-thiazolidine-4-carboxamide 1,1-dioxide]",181,268,193,1670,1390
"CNCc1cc2nc(NC(=O)[C@H]3C[C@@H](F)CN3C(=O)C3(c4ccc(OC(F)F)cc4)CCC(F)(F)CC3)ccc2[nH]1 [Example 103, (4R)-1-({1-[4-(Difluoromethoxy)phenyl]-4,4-difluorocyclohexyl}carbonyl)-4-fluoro-N-{2-[(methylamino)methyl]-1H-pyrrolo[3,2-b]pyridin-5-yl}-D-prolinamide]",41,34,77,304,184
O=C(Nc1ccc2[nH]ncc2n1)[C@H]1C[C@@H](F)CN1C(=O)C1(c2ccc(OCF)c(F)c2)CC(F)(F)C1 [Example 86],23,14,40,101,86.8
"COc1ccc(C2(C(=O)N3CCC[C@@H]3C(=O)Nc3ccc4[nH]ncc4c3)CCCC2)cc1 [Example 24, N-1H-Indazol-5-yl-1-{[1-(4-methoxyphenyl)cyclopentyl]carbonyl}-D-prolinamide]",254,916,128,4060,1620
"CS(=O)(=O)c1ccc(C2(C(=O)N3C[C@H](F)C[C@@H]3C(=O)Nc3ccc4[nH]ncc4c3C#N)CCC(F)(F)CC2)cc1 [Example 99, (4R)—N-(4-Cyano-1H-indazol-5-yl)-1-({4,4-difluoro-1-[4-(methylsulfonyl)phenyl]cyclohexyl}carbonyl)-4-fluoro-D-prolinamide]",76,62,205,399,300
"COc1ccc(C2(C(=O)N3CC(=O)C[C@@H]3C(=O)Nc3ccc4[nH]ccc4n3)CCC(F)(F)CC2)cc1 [Example 75, 1-{[4,4-Difluoro-1-(4-methoxyphenyl)cyclohexyl]carbonyl}-4-oxo-N-1H-pyrrolo[3,2-b]pyridin-5-yl-D-prolinamide]",43,67,77,613,398
"COc1ccc(C2(C(=O)N3CS(=O)(=O)C[C@@H]3C(=O)Nc3ccc4[nH]ncc4n3)CCC(F)(F)CC2)cc1 [Example 68, (4S)-3-{[4,4-Difluoro-1-(4-methoxyphenyl)cyclohexyl]carbonyl}-N-(1H-pyrazolo[4,3-b]pyridin-5-yl)-1,3-thiazolidine-4-carboxamide 1,1-dioxide]",49,42,122,819,510
"COc1ccc(C2(C(=O)N(C)[C@@H](C(=O)Nc3ccc4[nH]ncc4n3)[C@H](C)O)CCC(F)(F)CC2)cc1 [Example 80, 4,4-Difluoro-N-[(2R,3S)-3-hydroxy-1-oxo-1-(1H-pyrazolo[4,3-b]pyridin-5-ylamino)butan-2-yl]-1-(4-methoxyphenyl)-N-methylcyclohexanecarboxamide]",78,17,91,277,141
"COc1ccc(C2(C(=O)N(C)[C@H](CCO)C(=O)Nc3ccc4[nH]ncc4n3)CCC(F)(F)CC2)cc1 [Example 69, 4,4-Difluoro-N-[(2R)-4-hydroxy-1-oxo-1-(1H-pyrazolo[4,3-b]pyridin-5-ylamino)butan-2-yl]-1-(4-methoxyphenyl)-N-methylcyclohexanecarboxamide]",157,402,239,4190,3120
O=C(Nc1ccc2[nH]ncc2n1)[C@H]1[C@H](O)[C@@H](F)CN1C(=O)C1(c2ccc(OC(F)F)cc2)CCC(F)(F)CC1 [Example 95],36,20,51,246,179

# Now from value to compound, other results behind:
IC50 (EP300) [nM],IC50 (H3K27Ac) [nM],IC50 (CREBBP) [nM],Compound,GI50 (TE-8 cells) [nM],GI50 (LK2 cells) [nM]
57,38,109,COc1ccc(C2(C(=O)N3C[C@H](F)[C@@H](O)[C@@H]3C(=O)Nc3ccc4[nH]ncc4n3)CCC(F)(F)CC2)cc1 [Example 38],176,117
48,53,76,COc1ccc(C2(C(=O)N3C[C@H](F)C[C@@H]3C(=O)Nc3ccc4[nH]ncc4n3)CC(C)(C)C2)cc1 [Example 57],473,310
13,39,25,O=C(Nc1ccc2[nH]ncc2n1)[C@H]1C[C@@H](F)CN1C(=O)C1(c2ccc(OCF)cc2)CCCC1 [Example 49],68.1,75
48,246,48,"COc1ccc(C2(C(=O)N3C[C@H](F)C[C@@H]3C(=O)Nc3cccc4[nH]ncc34)CCCCO2)cc1 (single isomer, unassigned) [Example 44]",1740,589
31,29,53,"O=C(Nc1ccc2[nH]ncc2n1)[C@H]1C[C@@H](F)CN1C(=O)C1(c2ccc(OCF)c(F)c2)CCC(F)(F)CC1 [Example 85, (4R)-1-({4,4-Difluoro-1-[3-fluoro-4-(fluoromethoxy)phenyl]cyclohexyl}carbonyl)-4-fluoro-N-1H-pyrazolo[4,3-b]pyridin-5-yl-D-prolinamide]",412,206
52,23,83,"CC(C)(O)c1ccc(C2(C(=O)N3C[C@H](F)C[C@@H]3C(=O)Nc3ccc4[nH]ncc4n3)CCCCC2)cc1 [Example 81a, (4R)-4-Fluoro-1-({1-[4-(2-hydroxypropan-2-yl)phenyl]cyclohexyl}carbonyl)-N-1H-pyrazolo[4,3-b]pyridin-5-yl-D-prolinamide]",176,167
60,94,52,"COc1ccc(C2(C(=O)N3C[C@H](F)C[C@@H]3C(=O)Nc3cc4ccccn4n3)CCCCC2)cc1 [Example 70, (4R)-4-Fluoro-1-{[1-(4-methoxyphenyl)cyclohexyl]carbonyl}-N-pyrazolo[1,5-a]pyridin-2-yl-D-prolinamide]",1070,729

# — patent US11274100B2, “EP300/CREBBP inhibitor” (Daiichi Sankyo Company, Limited, priority 2017, dated 2022)
